Assay results published in patent US20260027244A1, “SILICON-BASED FLUORIDE ACCEPTOR GROUPS FOR RADIOPHARMACEUTICALS” (Technische Universität München, priority 2022, published 2026).
Read-outs that look alike come from different tables or passages of the source.

Experiments:
PSMA = target: T1, PSMA (Homo sapiens, UniProt Q04609); assay: PSMA affinity (IC50) on LNCaP cells, competition with [125I]I-BA-KuE; assay type: binding
T1 construct: host or cells: LNCaP cells
Experimental: A mixture of trypsin and EDTA (0.05%, 0.02%) in PBS (Biochrom GmbH, Berlin, Germany) was used to harvest cells. Cells were counted with a Neubauer hemocytometer (Paul Marienfeld, Lauda-Königshofen, Germany).
In the case of metal-complexed ligands, the crude reaction mixture was diluted analogously, without further purification. Cells were harvested 24±2 hours prior to the experiment and seeded in 24-well plates (1.5×10^5 cells in 1 mL/well). After removal of the culture medium, the cells were carefully washed with 500 μL of HBSS (1% BSA) and left 15 min on ice for equilibration in 200 μL HBSS (1% BSA). […] For each concentration, the experiment was performed in triplicate. After incubation on ice for 60 min, the experiment was terminated by removal of the medium and consecutive rinsing with 200 μL of HBSS (1% BSA). The media of both steps were combined in one fraction and represent the amount of free radioligand. Afterwards, the cells were lysed with 250 μL of NaOH (1 M in H2O) for at least 15 min. After a washing step with NaOH (250 μL, 1 M in H2O), both fractions, representing the amount of bound ligand, were united. Quantification of all collected fractions was accomplished in a γ-counter. IC50 values were calculated using GraphPad PRISM software (GraphPad Software Inc., La Jolla, United States). The whole PSMA-affinity determination was carried out at least three times per ligand.

[1] = n-octanol-water partition coefficient (log D7.4); assay type: physicochemical
Experimental: In the development process of alternative SiFA-analogs, the influence of the substitution pattern at the aromatic moiety on lipophilicity is of particular importance. […] Assuming to observe a better differentiation in properties of the various prosthetic groups, investigations were conducted on small model peptides. Corresponding log D7.4-values (n≥8) are depicted in FIG. 3.
Approximately 1 MBq of the [^177Lu]Lu-labeled tracer or 0.5 MBq of the [^18F]F-labeled tracer was dissolved in 1 mL of n-octanol/PBS (v/v=1:1) in a reaction vial (1.5 mL). After vigorous mixing of the suspension for 3 min at rt, the vial was centrifuged at 15000 g for 5 min (Biofuge 15, Heraus Sepatech, Osterode, Germany) and 100 μL aliquots of both layers were measured in a γ-counter. The experiment was repeated (n≥6).

[2] = target: T2, human serum albumin (HSA) (Homo sapiens, UniProt P02768); assay: Human serum albumin (HSA) binding by high performance affinity chromatography (HPAC); assay type: in vitro ADME; settings: radiohybrid SSTR ligands, Table 4
T2 sequence (P02768 25-609): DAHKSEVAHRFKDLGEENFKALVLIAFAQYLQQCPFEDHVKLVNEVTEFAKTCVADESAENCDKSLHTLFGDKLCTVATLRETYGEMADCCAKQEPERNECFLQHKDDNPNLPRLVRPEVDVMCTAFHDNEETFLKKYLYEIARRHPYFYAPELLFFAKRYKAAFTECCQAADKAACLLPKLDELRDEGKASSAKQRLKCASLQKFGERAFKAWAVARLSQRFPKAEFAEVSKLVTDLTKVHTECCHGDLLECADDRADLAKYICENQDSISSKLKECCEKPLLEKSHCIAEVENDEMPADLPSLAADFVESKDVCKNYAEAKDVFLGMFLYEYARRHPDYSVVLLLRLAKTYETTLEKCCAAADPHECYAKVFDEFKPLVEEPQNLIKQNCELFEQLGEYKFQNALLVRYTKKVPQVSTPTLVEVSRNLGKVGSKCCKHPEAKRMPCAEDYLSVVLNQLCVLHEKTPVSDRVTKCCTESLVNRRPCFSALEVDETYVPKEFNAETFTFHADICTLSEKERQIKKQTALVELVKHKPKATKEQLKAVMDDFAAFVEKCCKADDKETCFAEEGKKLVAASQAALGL
Experimental: Investigations about the binding strength of the SiFA-MPs to human serum albumin (HSA) were conducted using high performance affinity chromatography (HPAC). The corresponding gold-standards ((4-SiFA)Bz-MPs) display—as expected from published as well as internal data—a quite strong HSA binding. This is associated with a comparably slow and unfavored blood clearance in vivo.

[3] = Biodistribution in LNCaP tumor-bearing male CB17-SCID mice; assay type: in vivo; settings: 1 h p.i.
From the text: Data expressed as percentage of the injected dose per gram (% ID/g), mean±standard deviation. Data of [18F]F, ^natGa-rhPSMA-7.3 were previously published by our group. (2)
Mice were used for experiments when tumors had grown to a diameter of 2-6 mm (4-20 weeks after inoculation).
Results are all decay-corrected and given in % injected dose per gram of tissue (% ID/g).

[4] = target: T2, human serum albumin (HSA); settings: HSA binding values obtained from literature; cited from earlier work
[5] = target: T2, human serum albumin (HSA); assay: HSA binding of reference substances from literature (HPAC calibration); settings: logarithmic value of HSA binding values
Experimental: HSA binding of the PSMA-addressing ligands by HPAC was determined according to a previously published procedure via HPLC. […] Mobile phase A was a freshly prepared 50 mM aqueous solution of NH4OAc (pH 6.9) and mobile phase B was isopropanol (HPLC grade, VWR). The applied gradient for all experiments was 100% A (0 to 3 min), followed by 80% A (3 to 40 min). […] (12,13). All substances were dissolved in a 1:1 mixture (v/v) of isopropanol and a 50 mM aqueous solution of NH4OAc (pH 6.9) with a final concentration of 0.5 mg/mL. Non-linear regression was established with the OriginPro 2016G software (Northampton, United States).

[6] = 1 h p.i.; previously published data; cited from earlier work

T1 sequence (Q04609 whole entry): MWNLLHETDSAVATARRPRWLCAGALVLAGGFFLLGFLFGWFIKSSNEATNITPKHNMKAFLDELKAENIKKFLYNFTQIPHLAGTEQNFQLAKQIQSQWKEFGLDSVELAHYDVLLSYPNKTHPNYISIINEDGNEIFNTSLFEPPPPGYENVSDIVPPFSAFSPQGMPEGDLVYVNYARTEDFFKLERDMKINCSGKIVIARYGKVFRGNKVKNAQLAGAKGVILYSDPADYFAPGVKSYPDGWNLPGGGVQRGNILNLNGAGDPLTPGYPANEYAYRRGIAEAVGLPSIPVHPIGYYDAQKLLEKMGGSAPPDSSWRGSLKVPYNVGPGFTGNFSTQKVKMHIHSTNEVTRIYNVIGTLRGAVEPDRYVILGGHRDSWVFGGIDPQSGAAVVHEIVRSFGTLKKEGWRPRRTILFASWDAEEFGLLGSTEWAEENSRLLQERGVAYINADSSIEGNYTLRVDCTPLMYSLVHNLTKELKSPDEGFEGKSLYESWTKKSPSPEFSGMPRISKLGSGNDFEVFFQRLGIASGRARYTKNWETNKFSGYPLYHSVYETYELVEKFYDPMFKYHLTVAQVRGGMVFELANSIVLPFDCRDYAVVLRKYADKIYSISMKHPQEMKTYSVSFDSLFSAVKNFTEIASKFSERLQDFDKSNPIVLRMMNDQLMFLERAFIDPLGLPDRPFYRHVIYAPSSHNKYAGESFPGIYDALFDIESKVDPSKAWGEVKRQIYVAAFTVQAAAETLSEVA

CC(C)(C)[Si](F)(c1cccc(C(=O)NCCCC[C@H](NC(=O)N[C@@H](CCC(=O)O)C(=O)O)C(=O)O)c1)C(C)(C)C [PSMA-2]
increase in affinity (PSMA; shift of silyl group from para (PSMA-1) to meta position): more than 20 fold

C[C@@H](O)[C@H](NC(=O)[C@@H]1CSSC[C@H](NC(=O)[C@@H](Cc2ccccc2)NC(=O)CN2CCN(CC(=O)O)CCN(CC(=O)NCCNC(=O)c3cc(C(=O)O)cc([Si](F)(C(C)(C)C)C(C)(C)C)c3)CCN(CC(=O)O)CC2)C(=O)N[C@@H](Cc2ccc(O)cc2)C(=O)N[C@H](Cc2c[nH]c3ccccc23)C(=O)N[C@@H](CCCCN)C(=O)N[C@@H]([C@@H](C)O)C(=O)N1)C(=O)O [Entry 4, ^natGa-(5-SiFA)Ip-EDA-DOTATATE, metal not drawn]
logD7.4 (n = 6) ([1]; 18F-labeled compound, SSTR ligands): −0.67 ± 0.03
HSA binding (HPAC) [%] [2]: 97.4%

CC(C)(C)[Si](F)(c1cc(C(=O)O)cc(C(=O)NCCCC[C@H](NC(=O)N[C@@H](CCC(=O)O)C(=O)O)C(=O)O)c1)C(C)(C)C [PSMA-3]
accumulation in intestine [3]: 17.7±1.6 % ID/g
accumulation in liver [3]: 7.2±4.8 % ID/g
blood value [3]: 0.55 % ID/g
bone uptake [3]: 1.16±0.22 % ID/g
kidney value [3]: 67.1±13.9 % ID/g
further improvement of affinity, factor (PSMA; attaching a carboxylic acid, compared to PSMA-2): two

CCCN(CCC)S(=O)(=O)c1ccc(C(=O)O)cc1 [Probenecid]
lit. HSA [%] [4]: 95.00%

CCCC[C@@H](C(=O)N[C@@H](CC(=O)O)C(=O)N[C@@H](Cc1cccc2ccccc12)C(N)=O)N(C)C(=O)[C@H](Cc1c[nH]c2ccccc12)NC(=O)CNC(=O)[C@H](Cc1ccc(O)cc1)NC(=O)[C@H](C)NC(=O)[C@@H](CCC(=O)O)NC(=O)CN1CCN(CC(=O)O)CCN(CC(=O)O)CCN(CC(=O)O)CC1 [Lu-DOTA-MGS5]
logD ([1]; pH 7.4): -2.25

Oc1ccccc1 [Phenol]
lit. HSA [%] [4]: 20.69%
Log K HSA [5]: −0.59

CC(C)(C)[Si](F)(c1ccc(C(=O)NC[C@@H](NC(=O)CC[C@@H](C(=O)O)N2CCN(CC(=O)O)CCN(CC(=O)O)CCN(CC(=O)O)CC2)C(=O)N[C@H](CCCCC(=O)NCCC(=O)NCCC[C@@H](NC(=O)CC[C@H](NC(=O)N[C@@H](CCC(=O)O)C(=O)O)C(=O)O)C(=O)O)C(=O)O)cc1)C(C)(C)C [[^18F]F, ^natGa-rhPSMA-7.3, metal not drawn]
blood value [6]: 0.96 % ID/g
bone uptake [6]: 0.38±0.32 % ID/g

O=C(O)c1ccccc1 [Benzoic Acid]
lit. HSA [%] [4]: 34.27%

Nc1ccccc1 [Aniline]
lit. HSA [%] [4]: 14.06%
Log K HSA [5]: −0.79

CC(C)(C)[Si](F)(c1ccc(C(=O)NCCCC[C@H](NC(=O)N[C@@H](CCC(=O)O)C(=O)O)C(=O)O)cc1)C(C)(C)C [Entry 1]
logD7.4 (n = 6) ([1]; pH 7.4): −1.95 ± 0.09
IC50 (PSMA): 0.327 ± 0.073 µM

COc1ccc(Cl)cc1C(=O)NCCc1ccc(S(=O)(=O)NC(=O)NC2CCCCC2)cc1 [Glibenclamide]
lit. HSA [%] [4]: 99.00%
Log K HSA [5]: 1.69
